Test results as given in PMC12736958 (Pharmaceutics, 2025).
Values joined by “and” are separate entries in the source; they are usually repeats but may differ in a detail not shown here. Identical values can stand only once.

Experiment: in vivo pharmacokinetic study in rats
Parameters: species or system Sprague-Dawley (SD) rats
Details: rat; for plasma concentration of Cur, individual animals: Rat1-Rat5
Description: Male Sprague-Dawley (SD) rats (200 ± 20 g) were supplied by SPF Biotechnology Co., Ltd. (Beijing, China) and housed under standard laboratory conditions throughout the study. All animals were housed in a controlled environment (22 ± 2 °C, 55 ± 10% humidity) under a 12/12 h light/dark cycle, with free access to a standard laboratory rodent diet and water. A 12 h fasting period was implemented prior to the experiment, with water permitted ad libitum. All animal procedures were performed in strict accordance with protocols approved by the Biological and Medical Ethics Committee of Minzu University of China.
After fasting for 12 h (with free access to water), SD rats (n = 25) were randomly divided into five groups (n = 5 per group). Group 1: crystalline Cur (i.v., dissolved in saline with 5% DMSO). Group 2: crystalline Cur (p.o., suspended in 0.5% CMC-Na). Group 3: Cur/P188 ASD (1:8, w/w; p.o.). Group 4: Cur/P188/TW80 ASD (1:8:1, w/w/w; p.o.). Group 5: Cur/P188/SLS ASD (1:8:1, w/w/w; p.o.). Group 1 received the formulation via tail vein injection, while Groups 2–5 were suspended in water (pH 7.0) and administered orally by gavage at a Cur-equivalent dose of 40 mg/kg. Blood samples (0.2 mL) were collected from each rat at 4, 7, 10, 20, and 30 min, and 1, 2, 4, and 24 h post-dosing. Plasma was separated by centrifugation (5000 rpm, 5 min, 4 °C) and stored at −80 °C until analysis.
Cur was extracted from 50 μL of plasma using 600 μL of ethyl acetate and quantified by LC-MS/MS, with diclofenac sodium (20 μL, 200 ng/mL) serving as the internal standard. Blank plasma was obtained from a separate control group (n = 5) that received water only. Analysis of these blank samples confirmed the absence of significant matrix interference, thereby validating the analytical method.
Cur quantification in cellular and rat plasma samples was carried out using a SCIEX QTRAP® 5500 LC-MS/MS system coupled with a SCIEX ExionLC^TM AC system (AB SCIEX, Framingham, MA, USA).
Separation was achieved on an Acquity UPLC® BEH C18 column (100 × 2.1 mm, 1.7 μm; Waters) maintained at 40 °C. The mobile phase consisted of (A) 0.1% formic acid in water and (B) acetonitrile (ACN), delivered at a flow rate of 0.14 mL/min with the following gradient program: 10% B (0–1.0 min), increased to 95% B (1.0–9.0 min), and returned to 10% B (9.0–12.0 min). The injection volume was 5 μL. The retention times were approximately 4.85 min for Cur and 6.70 min for diclofenac sodium, used as the internal standard (IS).
Mass spectrometric detection was performed using an IonDrive^TM Turbo V ion (SCIEX, Framingham, MA, USA) source operating in negative electrospray ionization (ESI) mode. Quantification was conducted via multiple reaction monitoring (MRM) at m/z 367.1→133.9 for Cur, and m/z 294.1→250.0 for diclofenac sodium (IS). The assay was linear over the concentration range of 2-500 ng/mL (R^2 > 0.999). All data were acquired in triplicate (n = 3) and processed using MultiQuant software version 3.0.2 (AB SCIEX).
Pharmacokinetic parameters were calculated using non-compartmental analysis with DAS 2.0 software (Boying Corporation, Beijing, China). Data analysis was performed using GraphPad Prism 10.1.2 software. The result is expressed as mean ± standard deviation (SD). For pairwise comparisons between groups, t-tests were conducted. For multiple group comparisons, one-way analysis of variance (ANOVA) was performed, followed by Tukey’s post hoc test for multiple comparisons. Prior to ANOVA, the assumptions of normality and homogeneity of variances were verified using the Shapiro–Wilk test and Bartlett’s test, respectively. p < 0.05 indicates statistically significant differences.

[1] = male, Sprague-Dawley, plasma, oral (o.p.), 40 mg/kg Cur-equivalent

Cmax [1]: 2.4 ± 0.4 ng/mL | Tmax [1]: 0.2 h | half-life [1]: 1.8 ± 0.4 h | MRT last (male, Sprague-Dawley, plasma, oral (o.p.), 40 mg/kg Cur-equivalent, read-out: MRT(0–24)): 6.3 ± 2 h | bioavailability (male, Sprague-Dawley, plasma, oral, 40 mg/kg, oral 40 mg/kg relative to intravenous administration, read-out: F (absolute oral bioavailability)): ~1% | concentration at 0.12 h (male, Sprague-Dawley, plasma, po, 40 mg/kg, oral (o.p.), 40 mg/kg, 0.12 h, Rat1-Rat5, read-out: plasma concentration of Cur, individual animals): 2.6 ng/mL | concentration at 0.17 h (male, Sprague-Dawley, plasma, po, 40 mg/kg, oral (o.p.), 40 mg/kg, 0.17 h, Rat1-Rat5, read-out: plasma concentration of Cur, individual animals): 2.8 ng/mL | F (absolute oral bioavailability) (oral 40 mg/kg relative to intravenous administration, 40 mg/kg): 0.97%
Compound: COc1cc(/C=C/C(=O)CC(=O)/C=C/c2ccc(O)c(OC)c2)ccc1O [Crystalline Cur, Curcumin]
plasma concentration of Cur, individual animals (oral (o.p.), 40 mg/kg, 0.07 h): 1.7 ng/mL and 1.4 ng/mL (2×) and 0.7 ng/mL and 1.1 ng/mL | plasma concentration of Cur, individual animals (oral (o.p.), 40 mg/kg, 0.12 h): 2.6 ng/mL and 2.1 ng/mL and 1.6 ng/mL and 1.9 ng/mL | plasma concentration of Cur, individual animals (oral (o.p.), 40 mg/kg, 0.17 h): 2.8 ng/mL and 2.5 ng/mL and 2.1 ng/mL and 2.0 ng/mL | plasma concentration of Cur, individual animals (oral (o.p.), 40 mg/kg, 0.33 h): 2.5 ng/mL and 2.1 ng/mL and 2.0 ng/mL and 1.5 ng/mL and 1.0 ng/mL | plasma concentration of Cur, individual animals (oral (o.p.), 40 mg/kg, 0.5 h): 2.2 ng/mL and 1.4 ng/mL and 1.2 ng/mL (2×) and 0.542 ng/mL | plasma concentration of Cur, individual animals (oral (o.p.), 40 mg/kg, 1 h): 1.4 ng/mL and 0.7 ng/mL and 0.845 ng/mL and 0.9 ng/mL and 0.369 ng/mL | plasma concentration of Cur, individual animals (oral (o.p.), 40 mg/kg, 2 h): 0.64 ng/mL and 0.9 ng/mL and 0.5 ng/mL and 0.7 ng/mL and 0.2 ng/mL | plasma concentration of Cur, individual animals (oral (o.p.), 40 mg/kg, 4 h): 0.256 ng/mL and 0.433 ng/mL and 0.228 ng/mL and 0.35 ng/mL and 0.125 ng/mL | plasma concentration of Cur, individual animals (oral (o.p.), 40 mg/kg, 24 h): 0.08 ng/mL and 0.056 ng/mL and 0.2 ng/mL and 0.112 ng/mL and 0.1 ng/mL
